The record followed here is ChEMBL document CHEMBL1921700, “Synthesis of novel 3-carboxamide-benzocoumarin derivatives as orally active antithrombotic agents” (Bioorg Med Chem Lett, 2011).

For data set [1], the system named is Mus musculus. The data set is described as follows: Toxicity in mouse assessed as increase in bleeding time at 30 uM/kg, po administered 60 mins prior to tail incision after 1 hr relative to aspirin. The class given is organism-based. Conditions: in vivo.
Data set [2] has as its system Mus musculus. The data set is described as follows: Ex vivo anticoagulant activity in mouse assessed as prothrombin time in plasma at 30 uM/kg, po after for 3 days. The class given is functional.
Data set [3] has as its system Mus musculus. The data set is described as follows: Ex vivo antithrombotic activity in mouse assessed as protection against collagen and adrenaline-induced hind limb paralysis or death at 30 uM/kg, po administered 60 mins prior to thrombotic challenge after 3 days. In kind it is functional, Hindlimb.
The subject of data set [4] is Mus musculus. As to the kind of experiment: Ex vivo antithrombotic activity in mouse assessed as protection against collagen and adrenaline-induced hind limb paralysis or death at 30 uM/kg, po administered 60 mins prior to thrombotic challenge after 1 hr. In kind it is functional, Hindlimb.
In data set [5] the test system is Mus musculus. The data set is described as follows: Toxicity in mouse assessed as increase in bleeding time at 30 uM/kg, po administered 60 mins prior to tail incision after 3 days relative to aspirin. The class given is organism-based. Conditions: in vivo.

Regarding `CCCNC(=O)c1cc2cc(C)c3ccccc3c2oc1=O`, the Activity in the data set with Mus musculus [1] was 17%; with Mus musculus [3], 20%; with Mus musculus [4], 10%; in the data set with Mus musculus [5] it was 55%. Also, in the data set with Mus musculus [2], the Time was 10.2 s.

`CNC(=O)c1cc2cc(C)c3ccccc3c2oc1=O`: the Activity with Mus musculus [1] came to 48%; with Mus musculus [3] it was 40%; in the data set with Mus musculus [4], 35%; in the data set on Mus musculus [5], 65%. Further, the Time with Mus musculus [2] was 8.5 s.

For the compound `CCNC(=O)c1cc2cc(C)c3ccccc3c2oc1=O`, the Activity in the data set on Mus musculus [1] came to 45%; in the data set with Mus musculus [3] it was 30%; with Mus musculus [4] it was 30%; with Mus musculus [5], 68%. Moreover, the Time with Mus musculus [2] came out at 10.2 s.

Turning to `Cc1cc2cc(C(=O)N(C)C)c(=O)oc2c2ccccc12`, the Activity in the data set with Mus musculus [1] came to 58%; with Mus musculus [3] it was 40%; in the data set with Mus musculus [4] it was 20%; in the data set with Mus musculus [5], 100%. The Time in the data set on Mus musculus [2] was determined as 10 s.

In the case of `Cc1cc2cc(C(=O)NC3CCCCC3)c(=O)oc2c2ccccc12`, the Activity was 53% in the data set with Mus musculus [1], 40% in the data set with Mus musculus [3], 35% in the data set with Mus musculus [4] and 82% with Mus musculus [5]. Besides, the Time with Mus musculus [2] worked out at 10.2 s.

Consider `Cc1cc2cc(C(=O)N3CCCCC3)c(=O)oc2c2ccccc12`, for which the Activity with Mus musculus [1] is 59%; with Mus musculus [3] it was 29%; with Mus musculus [4], 20%; with Mus musculus [5], 91%. The Time in the data set with Mus musculus [2] turned out to be 9.4 s.

With `Cc1cc2cc(C(=O)N3CCN(C)CC3)c(=O)oc2c2ccccc12`, the Activity with Mus musculus [1] came to 17%; in the data set with Mus musculus [3], 20%; in the data set on Mus musculus [4] it was 10%; in the data set on Mus musculus [5] it was 55%. Also, the Time in the data set on Mus musculus [2] came out at 8.1 s.

For the compound `Cc1cc2cc(C(=O)N3CCOCC3)c(=O)oc2c2ccccc12`, the Activity with Mus musculus [1] amounted to 33%; in the data set on Mus musculus [3] it was 33%; with Mus musculus [4] it was 20%; in the data set with Mus musculus [5], 100%. In the data set on Mus musculus [2], the Time was 11.6 s.

Take `Cc1cc2cc(C(=O)NCCCN3CCOCC3)c(=O)oc2c2ccccc12`: the Activity in the data set with Mus musculus [1] is given as 50%; in the data set on Mus musculus [3] it was 33%; in the data set with Mus musculus [4] it was 30%; in the data set on Mus musculus [5], 91%. Moreover, the Time with Mus musculus [2] is 10.2 s.

On to `Cc1ccc(NC(=O)c2cc3cc(C)c4ccccc4c3oc2=O)cc1`, for which the Activity with Mus musculus [1] is listed as 58%; in the data set on Mus musculus [3], 40%; in the data set on Mus musculus [4], 30%; in the data set on Mus musculus [5], 63%. Moreover, the Time in the data set with Mus musculus [2] was determined as 9.3 s.

As to `CNC(=O)c1cc2cc(/C=C/C(=O)c3ccc(C)cc3)c3ccccc3c2oc1=O`, the Activity in the data set with Mus musculus [1] turned out to be 17%; in the data set with Mus musculus [3], 22%; with Mus musculus [4], 20%; with Mus musculus [5], 55%. Further, the Time with Mus musculus [2] amounted to 9.9 s.

With `CCNC(=O)c1cc2cc(/C=C/C(=O)c3ccc(C)cc3)c3ccccc3c2oc1=O`, the Activity with Mus musculus [1] worked out at 33%; in the data set on Mus musculus [3] it was 44%; in the data set with Mus musculus [4], 40%; in the data set on Mus musculus [5], 100%. Besides, the Time in the data set with Mus musculus [2] is 11.1 s.

On to `CCCNC(=O)c1cc2cc(/C=C/C(=O)c3ccc(C)cc3)c3ccccc3c2oc1=O`, for which the Activity in the data set on Mus musculus [1] is on record as 100%; in the data set with Mus musculus [3], 33%; with Mus musculus [4], 40%; in the data set on Mus musculus [5] it was 127%. In addition, the Time in the data set on Mus musculus [2] was determined as 10.3 s.

Regarding `Cc1ccc(C(=O)/C=C/c2cc3cc(C(=O)N(C)C)c(=O)oc3c3ccccc23)cc1`, the Activity in the data set on Mus musculus [1] was determined as 59%; with Mus musculus [3], 33%; with Mus musculus [4], 30%; with Mus musculus [5] it was 82%. Besides, the Time with Mus musculus [2] worked out at 10.5 s.

On to `Cc1ccc(C(=O)/C=C/c2cc3cc(C(=O)NC4CCCCC4)c(=O)oc3c3ccccc23)cc1`, for which the Activity is 84% in the data set with Mus musculus [1], 44% with Mus musculus [3], 40% with Mus musculus [4] and 109% in the data set with Mus musculus [5]. In the data set with Mus musculus [2], the Time stood at 10.6 s.

Turning to `Cc1ccc(C(=O)/C=C/c2cc3cc(C(=O)N4CCCCC4)c(=O)oc3c3ccccc23)cc1`, the Activity in the data set on Mus musculus [1] is 25%; with Mus musculus [3], 42%; with Mus musculus [4] it was 30%; with Mus musculus [5], 45%. For the same compound, the Time with Mus musculus [2] was 9.7 s.

For the compound `Cc1ccc(C(=O)/C=C/c2cc3cc(C(=O)N4CCN(C)CC4)c(=O)oc3c3ccccc23)cc1`, the Activity in the data set on Mus musculus [1] is 34%; with Mus musculus [3], 22%; in the data set on Mus musculus [4], 20%; in the data set with Mus musculus [5], 36%. For the same compound, the Time in the data set with Mus musculus [2] came out at 8.7 s.

Turning to `Cc1ccc(C(=O)/C=C/c2cc3cc(C(=O)N4CCOCC4)c(=O)oc3c3ccccc23)cc1`, the Activity with Mus musculus [1] was found to be 17%; with Mus musculus [3], 30%; with Mus musculus [4], 20%; with Mus musculus [5], 55%. The Time in the data set with Mus musculus [2] turned out to be 11.4 s.

Regarding `Cc1ccc(C(=O)/C=C/c2cc3cc(C(=O)NCCCN4CCOCC4)c(=O)oc3c3ccccc23)cc1`, the Activity in the data set with Mus musculus [1] is reported as 25%; in the data set on Mus musculus [3], 33%; with Mus musculus [4], 30%; in the data set with Mus musculus [5] it was 45%. For the same compound, in the data set with Mus musculus [2], the Time is 11 s.

As for `Cc1ccc(NC(=O)c2cc3cc(/C=C/C(=O)c4ccc(C)cc4)c4ccccc4c3oc2=O)cc1`, the Activity in the data set with Mus musculus [1] stood at 83%; in the data set with Mus musculus [3], 44%; in the data set on Mus musculus [4], 40%; in the data set with Mus musculus [5] it was 109%. Also, the Time in the data set on Mus musculus [2] was found to be 9.5 s.

As for `CC(=O)Oc1ccccc1C(=O)O` [ASPIRIN], the Activity in the data set on Mus musculus [1] is 100%; with Mus musculus [4], 37%.

For the compound `CC(=O)CC(c1ccccc1)c1c(O)c2ccccc2oc1=O` (stereo not given) [WARFARIN], the Time with Mus musculus [2] came to 116 s. Also, the figures for the Activity in the data set with Mus musculus [3] and in the data set with Mus musculus [5] were 50% and 46%, respectively.
